Results on 17 compounds are retold here after patent US5652238A, “Esters of substituted-hydroxyacetyl piperazine phenyl oxazolidinones” (Pharmacia & Upjohn Company, priority 1996, dated 1997).

The test system of data set [1] is Staphylococcus aureus UC9213 or Streptococcus species. In words: Antimicrobial activity in vivo, Murine Assay (mice infected intraperitoneally with bacteria; ED50 from survival over six days). As to conditions: 144 h, female mice, treatment one hour and five hours after infection. Here is the method: Antimicrobial activity was tested in vivo using the Murine Assay procedure. Groups of female mice (six mice of 18-20 grams each) were injected intraperitoneally with bacteria which were thawed just prior to use and suspended in brain heart infusion with 4% brewers yeast UC9213 (Staphylococcus aureus) or brain heart infusion (Streptococcus species). Antibiotic treatment at six dose levels per drug was administered one hour and five hours after infection by either oral intubation or subcutaneous ("subcut.") routes. Survival was observed daily for six days. ED50 values based on mortality ratios were calculated using probit analysis. The subject compounds were compared against a well-known antimicobial (Vancomycin) as a control.

Data set [2] is described as follows: Aqueous solubility (pH 7, phosphate buffer). It is filed as physicochemical.

≈ marks a conversion by molar mass, not a printed value. Where a name gives a salt, the structure may show the parent alone. Some results are limits rather than exact numbers.

In general, ED50 refers to the dose that gives a 50% effect, or the effect in half of the subjects. Higher therefore signals weaker potency. In general, solubility refers to how much of the substance goes into solution per volume. Low readings indicate little dissolved substance, high ones much dissolved substance.

For the compound `CC(=O)NC[C@H]1CN(c2ccc(N3CCN(C(=O)COC(=O)CCN4CCOCC4)CC3)c(F)c2)C(=O)O1` [Example 1, 3-(4-Morpholinyl)propionic acid, 2-(4-(4-(5-((acetylamino)methyl)-2-oxo-3-oxazolidinyl)-2-fluorophenyl)-1-piperazinyl)-2-oxoethyl ester, (S)], the ED50 in data set [1] (oral) was 5 mg/kg; in data set [1] (sc, subcut.) it was 4 mg/kg. The solubility in data set [2] was found to be 36000 µg/mL (≈ 67.2 mM).
In the same order, the values of `CC(=O)NC[C@H]1CN(c2ccc(N3CCN(C(=O)COC(=O)c4cccnc4)CC3)c(F)c2)C(=O)O1` [Example 2, Nicotinic acid, 2-[4-[4-[5-[(acetylamino)methyl]-2-oxo-3-oxazolidinyl]-2-fluorophenyl]-1-piperazinyl]-2-oxoethyl ester, (S)-] are 9 mg/kg, 15 mg/kg and 300 µg/mL (≈ 0.601 mM).
As to `CC(=O)NC[C@H]1CN(c2cc(F)c(N3CCN(C(=O)COC(=O)c4cccnc4)CC3)c(F)c2)C(=O)O1` [Example 3, Nicotinic acid, 2-[4-[4-[5-[(acetylamino)methyl]-2-oxo-3-oxazolidinyl]-2,6-difluorophenyl]-1-piperazinyl]-2-oxoethyl ester, (S)-6], the median effective dose (ED50) turned out to be 16 mg/kg in data set [1] (oral) and 8 mg/kg in data set [1] (sc, subcut.). Also, the solubility in data set [2] was found to be 50 µg/mL (≈ 0.0966 mM).
In the same order, the values of `CC(=O)NC[C@H]1CN(c2ccc(N3CCN(C(=O)COC(=O)n4ccnc4)CC3)c(F)c2)C(=O)O1` [Example 4, 1H-imidazole-1-carboxylic acid, 2-[4-[4-[5-[(acetylamino)methyl]-2-oxo-3-oxazolidinyl]-2-fluorophenyl]-1-piperazinyl]-2-oxoethyl ester, (S)-] are 2 mg/kg, 2 mg/kg and 1400 µg/mL (≈ 2.87 mM).
With `CC(=O)NC[C@H]1CN(c2cc(F)c(N3CCN(C(=O)COC(=O)n4ccnc4)CC3)c(F)c2)C(=O)O1` [Example 5, 1H-imidazole-1-carboxylic acid, 2-[4-[4-[5-[(acetylamino)methyl]-2-oxo-3-oxazolidinyl]-2,6-difluorophenyl]-1-piperazinyl]-2-oxoethyl ester, (S)-], the ED50 in data set [1] (oral) is 7 mg/kg; in data set [1] (sc, subcut.) it was 5 mg/kg.
For the compound `COCCOC(=O)OCC(=O)N1CCN(c2ccc(N3C[C@H](CNC(C)=O)OC3=O)cc2F)CC1` [Example 6, Carbonic acid, 2-[4-[4-[5-[(acetylamino)methyl]-2-oxo-3-oxazolidinyl]-2-fluorophenyl]-1-piperazinyl]-2-oxoethyl ester-2-methoxyethyl ester, (S)], the ED50 turned out to be 2 mg/kg in data set [1] (oral) and 2 mg/kg in data set [1] (sc, subcut.). This compound also returned a solubility in data set [2] of 2900 µg/mL (≈ 5.84 mM).
With `CC(=O)NC[C@H]1CN(c2ccc(N3CCN(C(=O)COC(=O)c4ccc(N(C)C)cc4)CC3)c(F)c2)C(=O)O1` [Example 7, 4-dimethylaminobenzoic acid, 2-[4-[4-[5-[(acetylamino)methyl]-2-oxo-3-oxazolidinyl]-2-fluorophenyl]-1-piperazinyl]-2-oxoethyl ester, (S)-], the ED50 was above 20 mg/kg in data set [1] (oral) and 1 mg/kg in data set [1] (sc, subcut.). In addition, the solubility in data set [2] stood at 10 µg/mL (≈ 0.0185 mM).
In the same order, the values of `CC(=O)NC[C@H]1CN(c2cc(F)c(N3CCN(C(=O)COC(=O)c4ccc(N(C)C)cc4)CC3)c(F)c2)C(=O)O1` [Example 8, 4-dimethylaminobenzoic acid, 2-[4-[4-[5-[(acetylamino)methyl]-2-oxo-3-oxazolidinyl]-2,6-difluorophenyl]-1-piperazinyl]-2-oxoethyl ester, (S)-] are 10 mg/kg, 6 mg/kg and 10 µg/mL (≈ 0.0179 mM).
Regarding `CC(=O)NC[C@H]1CN(c2ccc(N3CCN(C(=O)COC(=O)CN(C)C)CC3)c(F)c2)C(=O)O1` [Example 9, Glycine, N,N-dimethyl-, 2-[4-[4-[5-[(acetylamino)methyl]-2-oxo-oxazolidinyl]-2-fluorophenyl]-1-piperazinyl]-2-oxoethyl ester, (S)-], the ED50 in data set [1] (oral) stood at 2 mg/kg; in data set [1] (sc, subcut.), 3 mg/kg. In addition, the solubility in data set [2] amounted to 150000 µg/mL (≈ 313 mM).
As to `CC(=O)NC[C@H]1CN(c2cc(F)c(N3CCN(C(=O)COC(=O)CN(C)C)CC3)c(F)c2)C(=O)O1` [Example 10, Glycine, N,N-dimethyl-, 2-[4-[4-[5-[(acetylamino)methyl]-2-oxo-3-oxazolidinyl]-2,6-difluorophenyl]-1-piperazinyl]-2-oxoethyl ester, (S)-], the 50% effective dose (ED50) came out at 1 mg/kg in data set [1] (oral) and 2 mg/kg in data set [1] (sc, subcut.). Further, the concentration in solution in data set [2] (solubility) was 4200 µg/mL (≈ 8.44 mM).
As for `CC(=O)NC[C@H]1CN(c2ccc(N3CCN(C(=O)COC(=O)CCN(C)C)CC3)c(F)c2)C(=O)O1` [Example 11, 3-(Dimethylamino)propanoic acid, 2-[4-[4-[5-[(acetylamino)methyl]-2-oxo-3-oxazolidinyl]-2-fluorophenyl]-1-piperazinyl]-2-oxoethyl ester, (S)-], the ED50 in data set [1] (oral) is 8 mg/kg; in data set [1] (sc, subcut.) it was 8 mg/kg.
Turning to `CC(=O)NC[C@H]1CN(c2ccc(N3CCN(C(=O)COC(=O)CCCN(C)C)CC3)c(F)c2)C(=O)O1` [Example 12, 4-(Dimethylamino)butanoic acid, 2-[4-[4-[5-[(acetylamino)methyl]-2-oxo-3-oxazolidinyl]-2-fluorophenyl]-1-piperazinyl]-2-oxoethyl ester, (S)-], the median effective dose (ED50) in data set [1] (oral) is 12 mg/kg; in data set [1] (sc, subcut.), above 20 mg/kg. For the same compound, the concentration in solution in data set [2] (solubility) was 34600 µg/mL (≈ 68.2 mM).
As to `CC(=O)NC[C@H]1CN(c2cc(F)c(N3CCN(C(=O)COC(=O)CCC(=O)O)CC3)c(F)c2)C(=O)O1` [Example 15, Succinic acid, 2-(4-(4-(5-((acetylamino)methyl)-2-oxo-3-oxazolidinyl)-2,6-difluorophenyl)-1-piperazinyl)-2-oxoethyl monoester, (S)], in data set [2], the solubility came out at 12300 µg/mL (≈ 24 mM).
For `CC(=O)NC[C@H]1CN(c2cc(F)c(N3CCN(C(=O)COC(=O)CCC(=O)O)CC3)c(F)c2)C(=O)O1` [Example 16, Succinic acid, 2-(4-(4-(5-((acetylamino)methyl)-2-oxo-3-oxazolidinyl)-2,6-difluorophenyl)-1-piperazinyl)-2-oxoethyl monoester, sodium salt, (S)], the 50% effective dose (ED50) in data set [1] (oral) stood at 4 mg/kg.
With `CC(=O)CCC(=O)OCC(=O)N1CCN(c2ccc(N3C[C@H](CNC(C)=O)OC3=O)cc2F)CC1` [Example 19, 4-Oxo-valeric acid, 2-(4-(4-(5-((acetylamino)methyl)-2-oxo-3-oxazolidinyl)-2-fluorophenyl)-1-piperazinyl)-2-oxoethyl monoester, (S)], the concentration in solution in data set [2] (solubility) came to 2290 µg/mL (≈ 4.65 mM).
The compound `CC(=O)NC[C@H]1CN(c2cc(F)c(N3CCN(C(=O)COC(=O)CO)CC3)c(F)c2)C(=O)O1` [Example 24, Hydroxyacetic acid, 2-[4-[4-[5-[(acetylamino)methyl]-2-oxo-3-oxazolidinyl]-2,6-difluorophenyl]-1-piperazinyl]-2-oxoethyl ester,] returned a 50% effective dose (ED50) in data set [1] (oral) of 1 mg/kg.
Compound `CC(=O)NC[C@H]1CN(c2ccc(N3CCN(C(=O)COC(=O)c4ccc(NC(=O)CN(C)C)cc4)CC3)c(F)c2)C(=O)O1` [Example 28, 4-N-(N,N-dimethylglycinyl)aminobenzoic acid, 2-[4-[4-[5-[(acetylamino)methyl]-2-oxo-3-oxazolidinyl]-2-fluorophenyl]-1-piperazinyl]-2-oxoethyl ester, (S)-] registered a solubility in data set [2] of 90 µg/mL (≈ 0.15 mM).
